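The compound was tested at five concentrations on cells cultured in 96-well plates, with a 48-hour exposure period. TGI marks complete inhibition of growth.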
Experiments:
Test in all cases: NCI tumour cell line growth inhibition, 48 h
SN12K1 renal = system: SN12K1 renal
DMS 114 small cell lung = system: DMS 114 small cell lung
SNB-78 CNS = system: SNB-78 CNS
DLD-1 colon = system: DLD-1 colon
XF 498 CNS = system: XF 498 CNS
DMS 273 small cell lung = system: DMS 273 small cell lung
HOP-18 NSCLC = system: HOP-18 NSCLC
P388 leukemia = system: P388 leukemia
P388/ADR leukemia = system: P388/ADR leukemia
LXFL 529 NSCLC = system: LXFL 529 NSCLC

Row | Compound | TGI (SN12K1 renal) | TGI (DMS 114 small cell lung) | TGI (SNB-78 CNS) | TGI (DLD-1 colon) | TGI (XF 498 CNS) | TGI (DMS 273 small cell lung) | TGI (HOP-18 NSCLC) | TGI (P388 leukemia) | TGI (P388/ADR leukemia) | TGI (LXFL 529 NSCLC)
1 | COc1cc2ccc(=O)oc2cc1O | 236 µM | 335 µM | > 625 µM | 552 µM | 337 µM | 99.6 µM | 521 µM | 233 µM | 103 µM | 
2 | C/C=C/c1cc(=O)c([C@@H]2OC(=O)c3cc(OC)cc(OC)c32)co1 |  | 56.6 µM |  |  |  |  |  |  |  | 91.6 µM
3 | COc1c(O)c(C=O)c2c(O)c(-c3c(C)cc4c(C(C)C)c(OC)c(O)c(C=O)c4c3O)c(C)cc2c1C(C)C |  | 6.93 µM | 52.3 µM | 15.8 µM |  | 14.9 µM |  |  |  | 12 µM
4 | CC(=O)Oc1cc2c(cc1OC(C)=O)OCC(c1ccc(C)cc1)C2 (centres undefined) | 34 µM | 18.7 µM | 55.5 µM | 45.9 µM | 32.2 µM | 48.5 µM | 62.1 µM | 20.8 µM | 11.4 µM | 
5 | CN(C)C(=O)OC1C(=O)N(C)c2ccc(Cl)cc2C2(c3ccccc3)N1C2(Cl)Cl (centres undefined) |  |  |  | > 100 µM |  | > 100 µM |  |  |  | > 100 µM
6 | NC(=O)c1cccc([N+](=O)[O-])c1 |  | > 100 µM | > 100 µM | > 100 µM | > 100 µM | > 100 µM |  |  |  | > 100 µM

Reference: PubChem BioAssay (NCI)
